Measurements: publication PMC11945486, “TAS1R2/TAS1R3 Single-Nucleotide Polymorphisms Affect Sweet Taste Receptor Activation by Sweeteners: The SWEET Project” (Nutrients, 2025)
Where two headings read alike, the source gives them in different places. No end group written: not given here.

Molecular target: T1, human TAS1R2-WT/TAS1R3-A5T (Homo sapiens, UniProt Q7RTX0+Q8TE23, A5T)
T1 construct: expressed in transfected cells; host or cells: HEK293T stably expressing Gα16gust44
T1 sequence (Q8TE23 20-839): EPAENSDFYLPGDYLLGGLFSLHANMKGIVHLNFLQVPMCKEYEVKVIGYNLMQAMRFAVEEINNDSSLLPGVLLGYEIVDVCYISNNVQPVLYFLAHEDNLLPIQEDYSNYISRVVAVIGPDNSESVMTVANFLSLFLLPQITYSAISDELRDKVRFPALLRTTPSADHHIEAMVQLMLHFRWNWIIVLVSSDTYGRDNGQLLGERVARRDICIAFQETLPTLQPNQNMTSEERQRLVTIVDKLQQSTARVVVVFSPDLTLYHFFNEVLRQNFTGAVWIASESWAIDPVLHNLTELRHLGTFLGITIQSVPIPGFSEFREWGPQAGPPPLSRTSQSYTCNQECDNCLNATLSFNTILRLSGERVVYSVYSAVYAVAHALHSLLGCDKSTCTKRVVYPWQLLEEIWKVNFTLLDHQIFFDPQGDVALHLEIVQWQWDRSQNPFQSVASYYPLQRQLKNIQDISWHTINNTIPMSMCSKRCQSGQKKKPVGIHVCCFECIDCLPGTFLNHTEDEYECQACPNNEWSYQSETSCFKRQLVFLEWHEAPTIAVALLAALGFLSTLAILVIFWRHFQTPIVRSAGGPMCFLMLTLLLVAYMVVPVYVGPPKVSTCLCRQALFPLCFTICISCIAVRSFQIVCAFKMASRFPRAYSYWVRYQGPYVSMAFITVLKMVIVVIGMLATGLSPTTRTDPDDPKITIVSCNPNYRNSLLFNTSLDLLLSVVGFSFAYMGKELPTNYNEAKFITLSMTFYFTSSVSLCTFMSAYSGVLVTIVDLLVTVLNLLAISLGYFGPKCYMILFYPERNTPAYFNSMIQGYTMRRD
T1 sequence (Q7RTX0 21-852): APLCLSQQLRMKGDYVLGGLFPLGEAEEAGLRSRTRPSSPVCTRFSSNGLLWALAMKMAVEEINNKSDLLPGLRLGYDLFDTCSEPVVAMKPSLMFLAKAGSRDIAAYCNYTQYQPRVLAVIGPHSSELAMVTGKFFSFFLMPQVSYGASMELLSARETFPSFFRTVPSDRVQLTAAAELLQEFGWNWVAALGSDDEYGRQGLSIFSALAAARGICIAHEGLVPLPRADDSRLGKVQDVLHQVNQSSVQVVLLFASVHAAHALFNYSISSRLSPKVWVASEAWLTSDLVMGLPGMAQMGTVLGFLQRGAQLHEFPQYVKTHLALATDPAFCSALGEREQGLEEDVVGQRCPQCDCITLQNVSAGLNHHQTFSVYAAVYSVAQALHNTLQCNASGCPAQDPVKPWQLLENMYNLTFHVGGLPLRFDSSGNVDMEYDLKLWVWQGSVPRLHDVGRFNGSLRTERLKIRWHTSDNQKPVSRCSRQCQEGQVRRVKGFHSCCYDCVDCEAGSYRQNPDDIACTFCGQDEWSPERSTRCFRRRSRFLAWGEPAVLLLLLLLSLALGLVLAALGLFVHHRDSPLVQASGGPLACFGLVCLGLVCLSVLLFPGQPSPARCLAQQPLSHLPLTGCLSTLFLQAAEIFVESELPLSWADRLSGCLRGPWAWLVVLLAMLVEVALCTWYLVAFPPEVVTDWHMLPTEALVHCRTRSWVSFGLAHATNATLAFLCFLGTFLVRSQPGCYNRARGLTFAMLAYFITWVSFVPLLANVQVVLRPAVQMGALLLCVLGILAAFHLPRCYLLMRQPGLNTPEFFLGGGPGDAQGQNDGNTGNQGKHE
Test: Calcium mobilisation assay, TAS1R2-WT with TAS1R3 variant A5T
Assay type: cell-based
Conditions: for Max ΔF/F0: maximal signal amplitude
From the text: The coding sequences for TAS1R2 and TAS1R3 were commercially synthesised, and the human codon was optimised for expression in human cells. The coding sequences of human TAS1R2 and TAS1R3 were subcloned and inserted into the mammalian expression vectors pcDNA6/myc-HisA and pcDNA4/myc-HisA (Invitrogen; Thermo Fisher Scientific; Illkirch, France) between the EcoRI and NotI restriction sites, generating the plasmids pcDNA6-TAS1R2 and pcDNA4-TAS1R3, respectively. To increase protein expression in mammalian cells, an upstream start codon was used, which was a sequence called MAX, corresponding to the QBI SP163 element also described in pcDNA4-HisMax (Invitrogen; Thermo Fisher Scientific; Illkirch, France). To measure the expression level of the receptor by immunohistochemistry, we used the FLAG sequence ([…]) in the C-terminal position, which encodes the FLAG tag epitope. SNP variants of TAS1R2 and TAS1R3 were constructed based on […], respectively, using site-directed mutagenesis (Genewiz; Leipzig, Germany).
The HEK293T cells were kindly provided by Jay P. Slack (Givaudan Flavors Corporation; Cincinnati, OH, USA). HEK293T cells stably transfected with Gα16gust44 [43, 67] were seeded in poly-D-lysine-coated clear-bottom black 96-well plates (0.35 × 10^5 cells/well) in high-glucose DMEM supplemented with 2 mM GlutaMAX, 10% dialysed foetal bovine serum with penicillin/streptomycin and G418 (400 μg/mL) at 37 °C and 6.3% CO2 in a humidified atmosphere as previously reported. […] As a negative control, HEK293T cells were mock-transfected with the empty expression vector. After a further 24 h of incubation, the HEK293T cells were washed with C1 buffer (130 mM NaCl, 5 mM KCl, 10 mM HEPES pH 7.4 and 2 mM CaCl2). The 96-well plates containing the cells were then stimulated with sweet-tasting compounds. […] Different concentration ranges were tested depending on the sweet compound injected. The Ca^2+ changes were expressed as fractional changes in fluorescent light intensity: ΔF/F = (F − F0)/F0, where F was the fluorescent light intensity at each point, and F0 was the value of emitted fluorescent light prior to stimulus application. To calculate dose–response relationships, the changes in fluorescence upon stimulus application were averaged, mock-subtracted and baseline-corrected. The dose–response data obtained were adjusted using a 4-parameter logistic equation. The half-maximal effective concentrations (EC50 values) and maximal signal amplitudes were calculated using SigmaPlot software (version 15.0) (Systat Software; San Jose, CA, USA).
For in vitro calcium mobilisation assay performed on hTAS1R2-SNPs, hTAS1R3-SNPs and mTAS1R3-I60T, 6 to 7 concentrations were tested for each sweet compound, plus buffer alone. All concentration–receptor combinations were measured in duplicate, and each experiment was repeated at least 4 times (8 wells/concentration). Results were expressed for each concentration as ΔF/F mean ± SEM and represented as dose–response curves.

Compound | R1 = Variant EC50/WT EC50 | Max ΔF/F0 | EC50 (read-out: EC50) | EC50 (brazzein)
CC1=CC(=O)NS(=O)(=O)O1 [Acesulfame K, acesulfame K] | 1.4 | 0.31 ± 0.01 | 852 ± 34 µM | –
O=S(=O)(O)NC1CCCCC1 [Cyclamate, cyclamate] | – | – | 1790 ± 35 µM | –
C[C@H](CC[C@@H](O[C@@H]1O[C@H](CO[C@@H]2O[C@H](CO)[C@@H](O)[C@H](O)[C@H]2O)[C@@H](O)[C@H](O)[C@H]1O[C@@H]1O[C@H](CO)[C@@H](O)[C@H](O)[C@H]1O)C(C)(C)O)[C@H]1CC[C@@]2(C)[C@@H]3CC=C4[C@@H](CC[C@H](O[C@@H]5O[C@H](CO[C@@H]6O[C@H](CO)[C@@H](O)[C@H](O)[C@H]6O)[C@@H](O)[C@H](O)[C@H]5O)C4(C)C)[C@]3(C)[C@H](O)C[C@]12C [Mogroside V, mogroside V] | 1.0 | 0.97 ± 0.01 | 31.3 ± 1 µM | –
COc1ccc(CCC(=O)c2c(O)cc(O[C@@H]3O[C@H](CO)[C@@H](O)[C@H](O)[C@H]3O[C@@H]3O[C@@H](C)[C@H](O)[C@@H](O)[C@H]3O)cc2O)cc1O [NHDC, neohesperidin dihydrochalcone] | 1.5 | 1.24 ± 0.01 | 76.5 ± 13.1 µM | –
COC(=O)[C@H](Cc1ccccc1)NC(=O)[C@H](CC(=O)O)NCCC(C)(C)C [Neotame] | 1.0 | 0.65 ± 0.01 | 1.18 ± 0.05 µM | –
C=C(C)[C@@H]1CC=C(/C=N/O)CC1 [Perillartine, perillartine] | 1.0 | 1.42 ± 0.23 | 13.2 ± 6.4 µM | –
C=C1C[C@@]23CC[C@H]4[C@@](C)(CCC[C@@]4(C)C(=O)O[C@@H]4O[C@H](CO)[C@@H](O)[C@H](O[C@@H]5O[C@H](CO)[C@@H](O)[C@H](O)[C@H]5O)[C@H]4O[C@@H]4O[C@H](CO)[C@@H](O)[C@H](O)[C@H]4O)[C@@H]2CC[C@]1(O[C@@H]1O[C@H](CO)[C@@H](O)[C@H](O[C@@H]2O[C@H](CO)[C@@H](O)[C@H](O)[C@H]2O)[C@H]1O[C@@H]1O[C@H](CO)[C@@H](O)[C@H](O)[C@H]1O)C3 [Rebaudioside M, rebaudioside M] | 0.7 | 1.06 ± 0.02 | 30.2 ± 1.5 µM | –
OC[C@H]1O[C@H](O[C@]2(CCl)O[C@H](CCl)[C@@H](O)[C@@H]2O)[C@H](O)[C@@H](O)[C@H]1Cl [Sucralose] | 1.2 | 0.63 ± 0.01 | 135 ± 5 µM | –
brazzein (QDKCKKVYENYPVSKCQLANQCNYDCKLDKHARSGECFYDEKRNLQCICDYCEY; ends and bridges not checked; cysteine pairing not given here; UniProt P56552 1-54, looked up) [sweet-tasting protein obtained by recombinant production using the yeast Pichia pastoris] | 1.0 | 1.04 ± 0.04 | – | 108.3 ± 11.5 µg/mL
thaumatin | 0.9 | 0.73 ± 0.04 | 9.7 ± 0.8 µM | –
